Assay results as given in publication PMC7926352, “Synthesis, Characterization and In Vitro Evaluation of Novel 5-Ene-thiazolo[3,2-b][1,2,4]triazole-6(5H)-ones as Possible Anticancer Agents” (Molecules, 2021).
Where two headings read alike, the source gives them in different places.

Assays:
[1] = system: panel of approximately sixty human tumor cell lines; assay: NCI-60 human tumor cell lines screen (SRB), full panel; format: cell-based
Experimental: Compounds 2a, 2c–f, 2h–l, 3, 5e, 5f were selected for antitumor activity which was performed according to the standard protocols of National Cancer Institute (NCI, Bethesda, MD, USA) Developmental Therapeutic Program (DTP). At the prescreening stage, the compounds were evaluated for antitumor activity at the concentration of 10 µM against a panel of approximately sixty cancer cell lines representing different types of cancer including leukemia, melanoma, lung, colon, CNS, ovarian, renal, prostate and breast cancers.
Among them, three compounds (2d, 2h, 2i) presented excellent cytotoxic and four derivatives (2d, 2h, 2i, 2k) cytostatic properties in one or more cell lines when applied at a concentration of 10 µM. […] The outcomes were calculated and presented in the form of three response parameters (GI50, TGI and LC50) for each cell line via growth percentage inhibition curves. […]
The primary anticancer assay was performed on a panel of approximately sixty human tumor cell lines derived from nine neoplastic diseases (leukemia, melanoma, lung, colon, CNS, ovarian, renal, prostate, and breast cancers), in accordance with the protocol of the National Cancer Institute Drug Evaluation Branch (Bethesda, MD, USA). Tested compounds were added to the culture at a single concentration (10^−5 M) and the cultures were incubated for 48 h. End-point determinations were made with a protein-binding dye, sulforhodamine B (SRB). Results for each tested compound were reported as the percentage of the growth of the treated cells when compared to the untreated control cells. The percentage of the growth was evaluated spectrophotometrically versus controls not treated with test agents. […] Using absorbance measurements [time zero (Tz), control growth in the absence of drug (C), and test growth in the presence of the drug (Ti)], the percentage growth was calculated for each drug concentration. Percentage growth inhibition was calculated as:[(Ti − Tz)/[…]] × 100(1) for concentrations for which Ti ≥ Tz, [(Ti − Tz)/Tz] × 100 for concentrations for which Ti < Tz. Dose-response parameters (GI50, TGI) were calculated for each compound. Growth inhibition of 50% (GI50) was calculated from [(Ti − Tz)/(C − Tz)] × 100 = 50, which is the drug concentration resulting in a 50% lower net protein increase in the treated cells (measured by SRB staining) as compared to the net protein increase seen in the control cells. The drug concentration resulting in total growth inhibition (TGI) was calculated from Ti = Tz. Values were calculated for each of these parameters if the level of activity was reached; however, if the effect was not reached or was excessive, the value for that parameter was expressed as more or less than the maximum or minimum concentration tested. The lowest values were obtained with the most sensitive cell lines. Compounds having GI50 values ≤ 100 μM were declared to be active. The selectivity index (SI) calculated by dividing the full panel MG_MID (full-panel mean-graph midpoint) (μM) of the compounds 2h and 2i by their individual subpanel MG_MID of a cell line (μM) was considered as a measure of compounds’ selectivity. Ratios between 3 and 6 mean moderate selectivity, ratios greater than 6 indicate high selectivity toward the corresponding cell line, while compounds not meeting either of these criteria are rated nonselective.

[2] = system: CCRF-CEM; conditions: Leukemia
[3] = system: RPMI-8226; conditions: RPMI-8226, Leukemia
[4] = system: NCI-H460; conditions: NCI-H460, NSCLC
[5] = system: NCI-H522; conditions: NCI-H522, NSCLC
[6] = system: MALME-3M; conditions: MALME-3M, Melanoma
[7] = system: SK-MEL-5; conditions: SK-MEL-5, Melanoma
[8] = system: OVCAR-4; conditions: OVCAR-4, Ovarian Cancer
[9] = system: OVCAR-5; conditions: OVCAR-5, Ovarian Cancer
[10] = system: SK-OV-3; conditions: SK-OV-3, Ovarian Cancer
[11] = system: A498; conditions: A498, Renal Cancer
[12] = system: RXF 393; conditions: RXF 393, Renal Cancer
[13] = system: UO-31; conditions: UO-31, Renal Cancer
[14] = system: MDA-MB-231/ATCC; conditions: MDA-MB-231/ATCC, Breast Cancer
[15] = system: NSCLC (Non-small Cell Lung Cancer) cell lines; conditions: NSCLC subpanel
[16] = system: Ovarian Cancer cell lines; conditions: Ovarian Cancer subpanel
[17] = system: Prostate Cancer cell lines; conditions: Prostate Cancer subpanel
[18] = 60 cell lines assay in one dose, 10 μM, 48 h
[19] = read-out: GI50, values range inside panel

Ethyl(Z)-4-(3-(4-chloro-2-((6-oxothiazolo[3,2-b][1,2,4]triazol-5(6H)-ylidene)methyl)phenyl)propanamido)benzoate [Compound 2i]
Mean Growth, % [1, 18]: 61.05% | Range of Growth, % [1, 18]: −22.54 to 122.94% | TGI, Total MG_MID ([1]; full panel average): 28.18 µM | GI50 ([1]; full panel average, read-out: GI50, Total MG_MID): 11 µM | Positive Cytostatic Effect ([1]; one dose, 10 μM, ratio of number of cell lines with percent growth from 0 to 50 to total number of cell lines): 17/58 | GI50 [2]: 2.88 µM | TGI [2]: 9.99 µM | GI50 [3]: 5.37 µM | TGI [3]: 25.70 µM | GI50 [4]: 13.5 µM | TGI [4]: 27.54 µM | GI50 [5]: 11.7 µM | TGI [5]: 28.84 µM | GI50 [6]: 14.8 µM | TGI [6]: 28.18 µM | GI50 [7]: 10.5 µM | TGI [7]: 21.87 µM | GI50 [8]: 12.9 µM | TGI [8]: 38.90 µM | GI50 [9]: 15.5 µM | TGI [9]: 30.19 µM | GI50 [10]: 19.9 µM | TGI [10]: 35.48 µM | GI50 [11]: 17.4 µM | TGI [11]: 31.62 µM | GI50 [12]: 5.75 µM | TGI [12]: 21.37 µM | GI50 [13]: 15.1 µM | TGI [13]: 29.51 µM | GI50 [14]: 12.3 µM | TGI [14]: 26.91 µM | TGI, panel MG_MID [15]: 30.03 µM | TGI, values range inside panel [15]: 25.70 to 39.81 µM | GI50 ([15]; read-out: GI50, panel MG_MID): 14.1 µM | GI50 [15, 19]: 10.2 to 19.5 µM | TGI, panel MG_MID [16]: 31.15 µM | TGI, values range inside panel [16]: 20.89 to 38.90 µM | GI50 ([16]; read-out: GI50, panel MG_MID): 13.7 µM | TGI, panel MG_MID [17]: 27.11 µM | TGI, values range inside panel [17]: 16.21 to 38.01 µM | GI50 ([17]; read-out: GI50, panel MG_MID): 7.6 µM | GI50 [17, 19]: 3.98 to 11.2 µM
